Assay results from patent US6358885B1, “Substituted phenylheterocyclic herbicides” (Mississippi State University, priority 1992, dated 2002).

Key:
Test in all cases: Test B preemergence/postemergence greenhouse plant response rating 0 to 10
barley = format: in vivo, Hordeum vulgare; settings: for Plant response rating, Barley: 0 to 10 scale
Source text: (§1) Seeds of barley (Hordeum vulgare), barnyardgrass (Echinochloa crus-galli), bedstraw (Galium aparine), blackgrass (Alopecurus myosuroides), […] (Bromus secalinus), chickweed (Stellaria media), cocklebur (Xanthium pensylvanicum), corn (Zea mays), cotton (Gossypium hirsutum), crabgrass (Digitaria spp.), giant foxtail (Setaria faberii), lambsquarters (Chenopodium album), morningglory (Ipomoea hederacea), rape (Brassica napus), rice (Oryza sativa), sorghum (Sorghum bicolor), soybean (Glycine max), sugar beet (Beta vulgaris), velvetleaf (Abutilon theophrasti), wheat (Triticum aestivum), wild buckwheat (Polygonum convolvulus), and wild oat (Avena fatua) and purple nutsedge. (Cyperus rotundus) tubers were planted and treated preemergence with test chemicals dissolved in a non-phytotoxic solvent. At the same time, these crop and weed species were also treated with postemergence applications of test chemicals. Plants ranged in height from two to eighteen cm (one to four leaf stage) for postemergence treatments. Treated plants and controls were maintained in a greenhouse for twelve to sixteen days, after which all species were compared to controls and visually evaluated. […] A dash (-) response means no test result.

barnyardgrass = format: in vivo, Echinochloa crus-galli; settings: for Plant response rating, Barnyardgrass: 0 to 10 scale
Source text: as §1

bedstraw = format: in vivo, Galium aparine; settings: for Plant response rating, Bedstraw: 0 to 10 scale
Source text: as §1

blackgrass = format: in vivo, Alopecurus myosuroides; settings: for Plant response rating, Blackgrass: 0 to 10 scale
Source text: as §1

cheatgrass = format: in vivo, Bromus secalinus; settings: for Plant response rating, Cheatgrass: 0 to 10 scale
Source text: as §1

chickweed = format: in vivo, Stellaria media; settings: for Plant response rating, Chickweed: 0 to 10 scale
Source text: as §1

cocklebur = format: in vivo, Xanthium pensylvanicum; settings: for Plant response rating, Cocklebur: 0 to 10 scale
Source text: as §1

corn = format: in vivo, Zea mays; settings: for Plant response rating, Corn: 0 to 10 scale
Source text: as §1

cotton = format: in vivo, Gossypium hirsutum; settings: for Plant response rating, Cotton: 0 to 10 scale
Source text: as §1

crabgrass = format: in vivo, Digitaria spp.; settings: for Plant response rating, Crabgrass: 0 to 10 scale
Source text: as §1

giant foxtail = format: in vivo, Setaria faberii; settings: for Plant response rating, Giant foxtail: 0 to 10 scale
Source text: as §1

lambsquarters = format: in vivo, Chenopodium album; settings: for Plant response rating, Lambsquarter: 0 to 10 scale
Source text: as §1

morningglory = format: in vivo, Ipomoea hederacea; settings: for Plant response rating, Morningglory: 0 to 10 scale
Source text: as §1

rape = format: in vivo, Brassica napus; settings: for Plant response rating, Rape: 0 to 10 scale
Source text: as §1

rice = format: in vivo, Oryza sativa; settings: for Plant response rating, Rice: 0 to 10 scale
Source text: as §1

sorghum = format: in vivo, Sorghum bicolor; settings: for Plant response rating, Sorghum: 0 to 10 scale
Source text: as §1

soybean = format: in vivo, Glycine max; settings: for Plant response rating, Soybean: 0 to 10 scale
Source text: as §1

sugar beet = format: in vivo, Beta vulgaris; settings: for Plant response rating, Sugar beet: 0 to 10 scale
Source text: as §1

velvetleaf = format: in vivo, Abutilon theophrasti; settings: for Plant response rating, Velvetleaf: 0 to 10 scale
Source text: as §1

wheat = format: in vivo, Triticum aestivum; settings: for Plant response rating, Wheat: 0 to 10 scale
Source text: as §1

wild buckwheat = format: in vivo, Polygonum convolvulus; settings: for Plant response rating, Wild buckwheat: 0 to 10 scale
Source text: as §1

wild oat = format: in vivo, Avena fatua; settings: for Plant response rating, Wild oat: 0 to 10 scale
Source text: as §1

purple nutsedge = format: in vivo, Cyperus rotundus; settings: for Plant response rating, Nutsedge: 0 to 10 scale
Source text: as §1

## CCOC(=O)COc1cc(-c2nn3c(c2Cl)CCCC3)c(Cl)cc1Cl [Compound 73]
barley; POSTEMERGENCE, Rate 50 g/ha
  Plant response rating, Barley: 2
barley; PREEMERGENCE, Rate 50 g/ha
  Plant response rating, Barley: 0
barley; PREEMERGENCE, Rate 200 g/ha
  Plant response rating (0 to 10 scale), Barley: 0
barley; Rate 200 g/ha, POSTEMERGENCE
  Plant response rating, Barley: 3
barnyardgrass; POSTEMERGENCE, Rate 50 g/ha
  Plant response rating, Barnyardgrass: 7
barnyardgrass; PREEMERGENCE, Rate 50 g/ha
  Plant response rating, Barnyardgrass: 0
barnyardgrass; PREEMERGENCE, Rate 200 g/ha
  Plant response rating (0 to 10 scale), Barnyardgrass: 0
barnyardgrass; Rate 200 g/ha, POSTEMERGENCE
  Plant response rating, Barnyardgrass: 9
bedstraw; POSTEMERGENCE, Rate 50 g/ha
  Plant response rating, Bedstraw: 7
bedstraw; PREEMERGENCE, Rate 50 g/ha
  Plant response rating, Bedstraw: 2
bedstraw; PREEMERGENCE, Rate 200 g/ha
  Plant response rating (0 to 10 scale), Bedstraw: 9
bedstraw; Rate 200 g/ha, POSTEMERGENCE
  Plant response rating, Bedstraw: 8
blackgrass; POSTEMERGENCE, Rate 50 g/ha
  Plant response rating, Blackgrass: 5
blackgrass; PREEMERGENCE, Rate 50 g/ha
  Plant response rating, Blackgrass: 0
blackgrass; PREEMERGENCE, Rate 200 g/ha
  Plant response rating (0 to 10 scale), Blackgrass: 0
blackgrass; Rate 200 g/ha, POSTEMERGENCE
  Plant response rating, Blackgrass: 5
cheatgrass; POSTEMERGENCE, Rate 50 g/ha
  Plant response rating, Cheatgrass: 3
cheatgrass; PREEMERGENCE, Rate 50 g/ha
  Plant response rating, Cheatgrass: 0
cheatgrass; PREEMERGENCE, Rate 200 g/ha
  Plant response rating (0 to 10 scale), Cheatgrass: 2
cheatgrass; Rate 200 g/ha, POSTEMERGENCE
  Plant response rating, Cheatgrass: 6
chickweed; POSTEMERGENCE, Rate 50 g/ha
  Plant response rating, Chickweed: 2
chickweed; PREEMERGENCE, Rate 50 g/ha
  Plant response rating, Chickweed: 2
chickweed; PREEMERGENCE, Rate 200 g/ha
  Plant response rating (0 to 10 scale), Chickweed: 4
chickweed; Rate 200 g/ha, POSTEMERGENCE
  Plant response rating, Chickweed: 3
cocklebur; POSTEMERGENCE, Rate 50 g/ha
  Plant response rating, Cocklebur: 8
cocklebur; PREEMERGENCE, Rate 50 g/ha
  Plant response rating, Cocklebur: 0
cocklebur; PREEMERGENCE, Rate 200 g/ha
  Plant response rating (0 to 10 scale), Cocklebur: 0
cocklebur; Rate 200 g/ha, POSTEMERGENCE
  Plant response rating, Cocklebur: 10
corn; POSTEMERGENCE, Rate 50 g/ha
  Plant response rating, Corn: 5
corn; PREEMERGENCE, Rate 50 g/ha
  Plant response rating, Corn: 0
corn; PREEMERGENCE, Rate 200 g/ha
  Plant response rating (0 to 10 scale), Corn: 0
corn; Rate 200 g/ha, POSTEMERGENCE
  Plant response rating, Corn: 8
cotton; POSTEMERGENCE, Rate 50 g/ha
  Plant response rating, Cotton: 10
cotton; PREEMERGENCE, Rate 50 g/ha
  Plant response rating, Cotton: 0
cotton; PREEMERGENCE, Rate 200 g/ha
  Plant response rating (0 to 10 scale), Cotton: 0
cotton; Rate 200 g/ha, POSTEMERGENCE
  Plant response rating, Cotton: 10
crabgrass; POSTEMERGENCE, Rate 50 g/ha
  Plant response rating, Crabgrass: 3
crabgrass; PREEMERGENCE, Rate 50 g/ha
  Plant response rating, Crabgrass: 0
crabgrass; PREEMERGENCE, Rate 200 g/ha
  Plant response rating (0 to 10 scale), Crabgrass: 0
crabgrass; Rate 200 g/ha, POSTEMERGENCE
  Plant response rating, Crabgrass: 6
Giant foxtail; POSTEMERGENCE, Rate 50 g/ha
  Plant response rating, Giant foxtail: 5
Giant foxtail; PREEMERGENCE, Rate 50 g/ha
  Plant response rating, Giant foxtail: 0
Giant foxtail; PREEMERGENCE, Rate 200 g/ha
  Plant response rating (0 to 10 scale), Giant foxtail: 0
Giant foxtail; Rate 200 g/ha, POSTEMERGENCE
  Plant response rating, Giant foxtail: 5
lambsquarters; POSTEMERGENCE, Rate 50 g/ha
  Plant response rating, Lambsquarter: 9
lambsquarters; PREEMERGENCE, Rate 50 g/ha
  Plant response rating, Lambsquarter: 9
lambsquarters; PREEMERGENCE, Rate 200 g/ha
  Plant response rating (0 to 10 scale), Lambsquarter: 10
lambsquarters; Rate 200 g/ha, POSTEMERGENCE
  Plant response rating, Lambsquarter: 10
morningglory; POSTEMERGENCE, Rate 50 g/ha
  Plant response rating, Morningglory: 10
morningglory; PREEMERGENCE, Rate 50 g/ha
  Plant response rating, Morningglory: 0
morningglory; PREEMERGENCE, Rate 200 g/ha
  Plant response rating (0 to 10 scale), Morningglory: 0
morningglory; Rate 200 g/ha, POSTEMERGENCE
  Plant response rating, Morningglory: 9
rape; POSTEMERGENCE, Rate 50 g/ha
  Plant response rating, Rape: 7
rape; PREEMERGENCE, Rate 50 g/ha
  Plant response rating, Rape: 2
rape; PREEMERGENCE, Rate 200 g/ha
  Plant response rating (0 to 10 scale), Rape: 2
rape; Rate 200 g/ha, POSTEMERGENCE
  Plant response rating, Rape: 10
rice; POSTEMERGENCE, Rate 50 g/ha
  Plant response rating, Rice: 6
rice; PREEMERGENCE, Rate 50 g/ha
  Plant response rating, Rice: 0
rice; PREEMERGENCE, Rate 200 g/ha
  Plant response rating (0 to 10 scale), Rice: 0
rice; Rate 200 g/ha, POSTEMERGENCE
  Plant response rating, Rice: 6
sorghum; POSTEMERGENCE, Rate 50 g/ha
  Plant response rating, Sorghum: 4
sorghum; PREEMERGENCE, Rate 50 g/ha
  Plant response rating, Sorghum: 0
sorghum; PREEMERGENCE, Rate 200 g/ha
  Plant response rating (0 to 10 scale), Sorghum: 0
sorghum; Rate 200 g/ha, POSTEMERGENCE
  Plant response rating, Sorghum: 5
soybean; POSTEMERGENCE, Rate 50 g/ha
  Plant response rating, Soybean: 2
soybean; PREEMERGENCE, Rate 50 g/ha
  Plant response rating, Soybean: 0
soybean; PREEMERGENCE, Rate 200 g/ha
  Plant response rating (0 to 10 scale), Soybean: 0
soybean; Rate 200 g/ha, POSTEMERGENCE
  Plant response rating, Soybean: 5
Sugar beet; POSTEMERGENCE, Rate 50 g/ha
  Plant response rating, Sugar beet: 10
Sugar beet; PREEMERGENCE, Rate 50 g/ha
  Plant response rating, Sugar beet: 5
Sugar beet; PREEMERGENCE, Rate 200 g/ha
  Plant response rating (0 to 10 scale), Sugar beet: 5
Sugar beet; Rate 200 g/ha, POSTEMERGENCE
  Plant response rating, Sugar beet: 10
velvetleaf; POSTEMERGENCE, Rate 50 g/ha
  Plant response rating, Velvetleaf: 6
velvetleaf; PREEMERGENCE, Rate 50 g/ha
  Plant response rating, Velvetleaf: 2
velvetleaf; PREEMERGENCE, Rate 200 g/ha
  Plant response rating (0 to 10 scale), Velvetleaf: 7
velvetleaf; Rate 200 g/ha, POSTEMERGENCE
  Plant response rating, Velvetleaf: 9
wheat; POSTEMERGENCE, Rate 50 g/ha
  Plant response rating, Wheat: 2
wheat; PREEMERGENCE, Rate 50 g/ha
  Plant response rating, Wheat: 0
wheat; PREEMERGENCE, Rate 200 g/ha
  Plant response rating (0 to 10 scale), Wheat: 2
wheat; Rate 200 g/ha, POSTEMERGENCE
  Plant response rating, Wheat: 4
Wild buckwheat; POSTEMERGENCE, Rate 50 g/ha
  Plant response rating, Wild buckwheat: 10
Wild buckwheat; PREEMERGENCE, Rate 50 g/ha
  Plant response rating, Wild buckwheat: 0
Wild buckwheat; PREEMERGENCE, Rate 200 g/ha
  Plant response rating (0 to 10 scale), Wild buckwheat: 3
Wild buckwheat; Rate 200 g/ha, POSTEMERGENCE
  Plant response rating, Wild buckwheat: 10
Wild oat; POSTEMERGENCE, Rate 50 g/ha
  Plant response rating, Wild oat: 1
Wild oat; PREEMERGENCE, Rate 50 g/ha
  Plant response rating, Wild oat: 0
Wild oat; PREEMERGENCE, Rate 200 g/ha
  Plant response rating (0 to 10 scale), Wild oat: 2
Wild oat; Rate 200 g/ha, POSTEMERGENCE
  Plant response rating, Wild oat: 1
Purple nutsedge; POSTEMERGENCE, Rate 50 g/ha
  Plant response rating, Nutsedge: 2
Purple nutsedge; PREEMERGENCE, Rate 50 g/ha
  Plant response rating, Nutsedge: 0
Purple nutsedge; PREEMERGENCE, Rate 200 g/ha
  Plant response rating (0 to 10 scale), Nutsedge: 0
Purple nutsedge; Rate 200 g/ha, POSTEMERGENCE
  Plant response rating, Nutsedge: 3
